Measured values taken from patent US8247377B2, “Non-steroidal glucocorticoid inhibitors and their use in treating inflammation, allergy and auto-immune conditions” (Glaxo Group Limited, priority 2006, dated 2012).

Key:
MMTV promoter = experiment: MMTV agonist assay in A549 MMTV cells; format: cell-based; conditions: Homo sapiens, A549, 6 h, >85% = full agonist, >20% and <85% = partial or efficacy selective agonist, read-out: average maximum asymptote in the MMTV agonist assay
Procedure, shortened: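 A549 cells stably carrying an MMTV promoter-driven renilla luciferase reporter were exposed to compound for 6 h at 37 °C in DMEM with 10% FCS and 25 mM HEPES. Luminescence read after renilla substrate addition; pEC50 and maximum asymptote estimated from dose-response curves.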

glucocorticoid receptor = molecular target: T1, glucocorticoid receptor (Homo sapiens, UniProt P04150); experiment: Glucocorticoid receptor binding assay (fluorescence polarisation); conditions: competition with Alexa 555 fluorescently-labelled dexamethasone derivative, full length glucocorticoid receptor; read-out: glucocorticoid binding pIC50 (converted)
T1 construct: a partially purified full length glucocorticoid receptor
T1 sequence (P04150 1-777): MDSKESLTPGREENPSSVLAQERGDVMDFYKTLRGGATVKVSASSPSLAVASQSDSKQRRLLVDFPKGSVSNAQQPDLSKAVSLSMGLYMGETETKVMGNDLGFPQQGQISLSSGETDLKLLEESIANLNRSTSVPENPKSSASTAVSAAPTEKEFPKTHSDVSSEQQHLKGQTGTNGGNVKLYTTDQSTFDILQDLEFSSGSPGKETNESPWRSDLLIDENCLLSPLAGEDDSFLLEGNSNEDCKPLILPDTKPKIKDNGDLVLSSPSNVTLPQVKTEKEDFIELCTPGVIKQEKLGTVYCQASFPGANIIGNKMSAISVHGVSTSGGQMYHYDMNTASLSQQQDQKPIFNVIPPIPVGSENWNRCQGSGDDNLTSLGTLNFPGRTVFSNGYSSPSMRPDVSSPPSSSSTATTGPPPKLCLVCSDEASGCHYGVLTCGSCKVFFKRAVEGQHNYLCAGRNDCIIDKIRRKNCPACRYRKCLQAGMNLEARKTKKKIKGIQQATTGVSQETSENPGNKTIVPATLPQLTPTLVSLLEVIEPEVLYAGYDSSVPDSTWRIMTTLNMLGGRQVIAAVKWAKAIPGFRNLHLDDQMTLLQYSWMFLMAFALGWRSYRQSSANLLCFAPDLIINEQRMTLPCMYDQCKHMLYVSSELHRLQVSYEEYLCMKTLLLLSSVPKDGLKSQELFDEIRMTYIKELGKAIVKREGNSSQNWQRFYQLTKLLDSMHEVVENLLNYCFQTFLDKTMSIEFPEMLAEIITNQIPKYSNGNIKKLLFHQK
Procedure, shortened: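 Compounds in DMSO incubated with fluorescent dexamethasone and partially purified full-length GR plus stabilising buffer components, 2 hrs at room temperature in the dark. Displacement read as decrease in fluorescence polarisation; pIC50 estimated from dose-response curves.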

progesterone receptor = molecular target: T2, progesterone receptor (Homo sapiens, UniProt P06401); experiment: Assay for progesterone receptor activity (CV-1 cells, PRb-BacMam/MMTV-BacMam); format: cell-based; conditions: CV-1 cells transduced with PRb-BacMam and MMTV-BacMam; read-out: pEC50 progesterone receptor activity (converted)
T2 construct: expressed in transfected cells; host or cells: CV-1 cells transduced with PRb-BacMam and MMTV-BacMam
T2 sequence (P06401 1-933): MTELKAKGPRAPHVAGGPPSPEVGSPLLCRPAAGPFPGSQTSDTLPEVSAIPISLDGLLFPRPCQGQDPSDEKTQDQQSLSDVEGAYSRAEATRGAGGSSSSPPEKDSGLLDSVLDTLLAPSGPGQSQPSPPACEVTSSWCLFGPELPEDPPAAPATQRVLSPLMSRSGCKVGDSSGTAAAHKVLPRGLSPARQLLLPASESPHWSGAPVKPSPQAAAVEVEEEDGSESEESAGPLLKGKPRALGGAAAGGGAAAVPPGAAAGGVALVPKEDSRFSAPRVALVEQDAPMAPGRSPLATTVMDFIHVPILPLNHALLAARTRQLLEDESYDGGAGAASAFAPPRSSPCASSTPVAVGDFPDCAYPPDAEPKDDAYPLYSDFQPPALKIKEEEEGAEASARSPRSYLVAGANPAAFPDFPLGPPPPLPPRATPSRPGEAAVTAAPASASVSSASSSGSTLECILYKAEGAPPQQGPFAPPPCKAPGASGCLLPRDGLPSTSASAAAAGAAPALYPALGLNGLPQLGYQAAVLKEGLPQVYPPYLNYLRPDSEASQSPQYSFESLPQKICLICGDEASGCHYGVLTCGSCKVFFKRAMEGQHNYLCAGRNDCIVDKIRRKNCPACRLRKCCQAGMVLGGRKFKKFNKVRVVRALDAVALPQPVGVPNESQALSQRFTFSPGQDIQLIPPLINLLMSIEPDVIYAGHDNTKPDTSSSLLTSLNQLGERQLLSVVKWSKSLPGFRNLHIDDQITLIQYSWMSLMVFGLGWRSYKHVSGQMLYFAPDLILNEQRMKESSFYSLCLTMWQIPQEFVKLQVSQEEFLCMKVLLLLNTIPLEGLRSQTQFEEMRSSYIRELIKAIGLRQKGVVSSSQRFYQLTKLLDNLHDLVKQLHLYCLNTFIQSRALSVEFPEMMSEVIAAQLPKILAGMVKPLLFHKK
Procedure, shortened: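 CV-1 cells co-transduced with PRb-BacMam and MMTV-BacMam (10% each), seeded onto compounds in DMEM with 10% serum. After 24 h, luminescence was read with Steadylite. pEC50 values were estimated from dose-response curves.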

Nc1c(C(=O)NCC(O)(CNC(=O)c2c(F)cccc2Br)C(F)(F)F)cnn1-c1ccc(F)cc1 (single isomer, unassigned) [Example 13 Enantiomer 1, 5-Amino-N-[2-({[(2-bromo-6-fluorophenyl)carbonyl]amino}methyl)-3,3,3-trifluoro-2-hydroxypropyl]-1-(4-fluorophenyl)-1H-pyrazole-4-carboxamide] was tested, and the Emax (MMTV promoter) was 20 to 85%, the IC50 (glucocorticoid receptor) was at most 316 nM and the EC50 (progesterone receptor) was over 1000 nM.

Work on Nc1c(C(=O)NCC(O)(CNC(=O)c2c(Cl)cccc2OC(F)F)C(F)(F)F)cnn1-c1ccc(F)cc1 (single isomer, unassigned) [Example 14 Enantiomer 1, 5-Amino-N-(2-{[({2-chloro-6-[(difluoromethyl)oxy]phenyl}carbonyl)amino]methyl}-3,3,3-trifluoro-2-hydroxypropyl)-1-(4-fluorophenyl)-1H-pyrazole-4-carboxamide] yielded an Emax (MMTV promoter) of 20 to 85%, an IC50 (glucocorticoid receptor) of at most 316 nM and an EC50 (progesterone receptor) of over 1000 nM.

With Nc1c(C(=O)NCC(O)(CNC(=O)c2c(C(F)F)cccc2C(F)F)C(F)(F)F)cnn1-c1ccc(F)cc1 (single isomer, unassigned) [Example 43 Enantiomer 1, 5-Amino-N-{2-[({[2,6-bis(difluoromethyl)phenyl]carbonyl}amino)methyl]-3,3,3-trifluoro-2-hydroxypropyl}-1-(4-fluorophenyl)-1H-pyrazole-4-carboxamide] the Emax (MMTV promoter) was 20 to 85%, the IC50 (glucocorticoid receptor) was at most 316 nM and the EC50 (progesterone receptor) was over 1000 nM.

Nc1c(C(=O)NCC(O)(CNC(=O)c2c(Cl)cccc2C(F)(F)F)C(F)(F)F)cnn1-c1ccc(F)cc1 (single isomer, unassigned) [Example 44 Enantiomer 1, 5-Amino-N-{2-[({[2-chloro-6-(trifluoromethyl)phenyl]carbonyl}amino)methyl]-3,3,3-trifluoro-2-hydroxypropyl}-1-(4-fluorophenyl)-1H-pyrazole-4-carboxamide] was tested, and the Emax (MMTV promoter) was 20 to 85%, the IC50 (glucocorticoid receptor) was at most 316 nM and the EC50 (progesterone receptor) was over 1000 nM.

In the case of Nc1c(C(=O)NCC(O)(CNC(=O)c2c(Br)cccc2C(F)(F)F)C(F)(F)F)cnn1-c1ccc(F)cc1 (single isomer, unassigned) [Example 45 Enantiomer 1, 5-Amino-N-{2-[({[2-bromo-6-(trifluoromethyl)phenyl]carbonyl}amino)methyl]-3,3,3-trifluoro-2-hydroxypropyl}-1-(4-fluorophenyl)-1H-pyrazole-4-carboxamide], the Emax (MMTV promoter) is reported as 20 to 85%, the IC50 (glucocorticoid receptor) is reported as at most 316 nM and the EC50 (progesterone receptor) is reported as over 1000 nM.

Work on Nc1c(C(=O)NCC(O)(CNC(=O)c2c(F)cccc2OC(F)F)C(F)(F)F)cnn1-c1ccc(F)cc1 (single isomer, unassigned) [Example 48 Enantiomer 1, 5-Amino-N-(2-{[({2-[(difluoromethyl)oxy]-6-fluorophenyl}carbonyl)amino]methyl}-3,3,3-trifluoro-2-hydroxypropyl)-1-(4-fluorophenyl)-1H-pyrazole-4-carboxamide] yielded an Emax (MMTV promoter) of 20 to 85%, an IC50 (glucocorticoid receptor) of at most 316 nM and an EC50 (progesterone receptor) of over 1000 nM.
